Columns and labels:
[1] = target: human C5a receptor (C5aR) (Homo sapiens (Human), UniProt P21730); assay: Inhibition of C5a-C5aR binding (biotinylated human C5a, U937/C5aR cells, FACS)
Outline: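 Binding read by flow cytometry as FITC-streptavidin signal (30 min on ice) on washed cells after a 120 min on-ice incubation of compound with biotinylated human C5a (30 nM working solution). Cells used were C5aR-transfected U937, suspended at 3×10^6 cells/ml in PBS containing 0.1% BSA.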

[2] = target: T1, C5aR (Homo sapiens (Human), UniProt P21730); assay: Inhibition of C5a-C5aR binding determined by cell migration assay (U937/C5aR cells); format: cell-based; details: U937/C5aR cell migration towards human C5a, 180 min
Outline: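 Transwell migration through 3.0 µm pores: U937/C5aR cells in HBSS + 1% FBS were premixed with compound, with human C5a plus compound in the bottom well. After 30 min preincubation, cells migrated 180 min at 37 °C. Migrated cells were quantified by CellTiter-Glo luminescence.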

[3] = target: T1, C5aR; assay: Calcium mobilization (U937/C5aR or HEK293/C5aR cells, FLIPR); format: cell-based; details: agonist human C5a at EC80, FLIPR
Outline: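 FLIPR calcium-flux read-out using Fluo-4 Direct-loaded C5aR-expressing U937 or HEK293 cells stimulated with human C5a at its EC80. Compound was applied for 60 min before dye loading (50 min at 37 °C plus 10 min at room temperature) and agonist addition.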

[4] = test system: human C5a (hC5a) induced neutropenia; assay: C5a induced neutropenia in a cynomolgus model; format: in vivo; details: cynomolgus monkey, pre-dosed 4 hours before hC5a, compared to vehicle
Experimental: (§1) To study the efficacy of compounds in a non-human primate model, human C5a (hC5a) induced neutropenia is studied in a cynomolgus model. Intravenous injection of hC5a induced upregulation of adhesion molecules on blood vessel walls, leading to decreased neutrophils in the blood stream and attached to the vascular walls. Monkeys were pre-dosed with vehicle or specific compound, and 4 hours later, hC5a (10 g/kg, ACROBiosystems) was administrated and 1 minute later neutrophils are quantified in peripheral blood.
The percent change in the number of neutrophils in the blood collected after C5a injection (241 min) was calculated relative to the sample collected prior to C5a injection (239 min). The plasma concentration of each compound was calculated as the average concentration prior to C5a injection of 2 individual monkeys.

[5] = test system: C5a induced CD11b upregulation on granulocytes; assay: Neutrophil CD11b FACS assay, cyno monkey whole blood after oral pre-dosing; format: in vivo; details: oral pre-dosing at 10 mg/kg; for EC50 at 10 mg/kg: Macaca fascicularis, Neutrophil, read-out: EC50 (C5a induced CD11b upregulation on granulocytes ex-vivo)
Experimental: (§2) Peripheral blood samples were collected from Cynomolgus monkey/huC5aR knock-in mice at indicated timepoints. 100 μl aliquots were mixed with a range of C5a concentrations and incubated at 37° C. for 30 min. Blood was cooled down on wet ice for at least 3 min, anti-CD11b monoclonal antibody (BD Biosciences) was added and incubated at 4° C. for 60 min. Red blood cells were lysed by adding erythrocyte lysis buffer (Solarbio) and incubated on ice for 10 min, white blood cells were washed by pre-cold PBS twice and suspended by 2% PFA/PBS buffer. Neutrophils were classified with flow cytometry by their forward/side-scatter properties and mean fluorescence intensity of anti-CD11b staining on cells was read by FACS (Beckman).
The percent of CD11b signal was calculated by the formula %=(MFI[C5a conc.]-MFI[C5a=0])/(MFI[max]-MFI[C5a=0])×100%. Each data point was the average of 2 individual monkeys. The plasma concentration of each compound is the average concentration prior to C5a injection of 2 individual monkeys.

[6] = test system: C5a induced CD11b upregulation on neutrophil; assay: Neutrophil CD11b FACS assay, human C5aR knock-in mice whole blood after oral pre-dosing; format: in vivo; details: oral pre-dosing 0.3 mg/kg and 3 mg/kg
Experimental: as §2
(§3) Whole blood was collected at indicated timepoints (2 hours or 12 hours after dosing compound) and further stimulated with human C5a in vitro. CD11b FACS antibody was added and incubate for 60 min at 4 C before red blood cells were lysed. The percent of CD11b signal was calculated by the formula %=(MFI[C5a conc.]-MFI[C5a=0])/(MFI[max]-MFI[C5a=0])×100%. Each data point was the average SD of 3 individual mice.
as §3, with “2 hrs” for “indicated timepoints (2 hours or 12 hours”, “compound” for “compound)”, “average” for “average SD”, “2” for “3”
as §3, with “2 hrs” for “indicated timepoints (2 hours or 12 hours”, “compound” for “compound)”, “average±SD” for “average SD”, “2” for “3”

[7] = test system: human C5a induced neutropenia; assay: C5a induced neutropenia in human C5aR knock-in mice model; format: in vivo; details: 0.3 mg/kg and 3 mg/kg, pre-dosed 2 hours before hC5a
Experimental: as §1, with “an animal” for “a non-human primate”, “C5aR knock-in mice were created by replacing the coding region of mouse C5aR with human C5aR coding sequence.” for “C5a (hC5a) induced neutropenia is studied in a cynomolgus model.”, “Human C5aR knock-in mice” for “Monkeys”, “2” for “4”, “human C5a ([…]” for “hC5a (10”
The percent change in the number of neutrophils in the blood collected after C5a injection (121 min), relative to the sample collected prior to C5a injection (119 min). The plasma concentration of each compound is the average concentration prior to C5a injection of 3 individual mice.

human C5a receptor (C5aR), sequence (P21730 whole entry): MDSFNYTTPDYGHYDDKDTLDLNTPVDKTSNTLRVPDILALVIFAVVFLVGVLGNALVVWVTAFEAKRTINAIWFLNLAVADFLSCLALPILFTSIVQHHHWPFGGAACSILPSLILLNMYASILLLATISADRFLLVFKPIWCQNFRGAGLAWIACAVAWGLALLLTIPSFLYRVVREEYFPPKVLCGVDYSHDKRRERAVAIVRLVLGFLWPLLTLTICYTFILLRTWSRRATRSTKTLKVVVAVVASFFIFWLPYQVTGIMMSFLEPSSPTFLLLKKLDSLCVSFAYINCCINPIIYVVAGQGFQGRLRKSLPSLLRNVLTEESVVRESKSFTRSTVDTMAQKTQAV
T1 sequence (P21730 whole entry): as above

Structure (SMILES)	IC50 [1]	IC50 [2]	IC50 [3]	rescue of neutropenia induced by human C5a [4]	EC50 at 10 mg/kg [5]	C5a induced CD11b upregulation on granulocytes ex-vivo [5]	CD11b upregulation on neutrophil ([6]; 2 hours after dosing)	rescue of neutropenia induced by human C5a [7]	CD11b upregulation on neutrophil ([6]; 2 hours and 12 hours post-dosing)
Cc1ccc(NC(=O)[C@H]2C[C@H]3CCC[C@H]3N(C(=O)c3c(C)cccc3F)[C@H]2c2ccc(NC3CCCC3)cc2)cc1C(F)(F)F [Compound 47, (2R,3S,4aR,7aR)-2-(4-(cyclopentylamino)phenyl)-1-(2-fluoro-6-methylbenzoyl)-N-(4-methyl-3-(trifluoromethyl)phenyl)octahydro-1H-cyclopenta[b]pyridine-3-carboxamide]	0.05 to 0.5 µM	< 0.05 µM	< 0.05 µM	effectively rescued the neutropenia	0.276 µM	blocked	blocked		
Cc1cccc(F)c1C(=O)N1[C@@H]2CCC[C@@H]2C[C@H](C(=O)Nc2ccc3c(cnn3C)c2)[C@@H]1c1ccc(NC2CCCC2)cc1 [Compound 49, (2R,3S,4aR,7aR)-2-(4-(cyclopentylamino)phenyl)-1-(2-fluoro-6-methylbenzoyl)-N-(1-methyl-1H-indazol-5-yl)octahydro-1H-cyclopenta[b]pyridine-3-carboxamide]	< 0.05 µM	< 0.05 µM	0.5 to 2 µM	effectively rescued the neutropenia	0.256 µM	blocked	blocked	effectively rescued the neutropenia	blocked
Cc1cccc(F)c1C(=O)N1[C@@H]2CCC[C@@H]2C[C@H](C(=O)Nc2ccc3c(cnn3C)c2)[C@@H]1c1ccc(NC2CCOCC2)cc1 [Compound 89, (2R,3S,4aR,7aR)-1-(2-fluoro-6-methylbenzoyl)-N-(1-methyl-1H-indazol-5-yl)-2-(4-((tetrahydro-2H-pyran-4-yl)amino)phenyl)octahydro-1H-cyclopenta[b]pyridine-3-carboxamide]	< 0.05 µM	< 0.05 µM	0.5 to 2 µM				blocked		

Reference: patent publication US20240043439A1, “COMPOUNDS AS C5AR INHIBITORS” (Kira Pharmaceuticals (Suzhou) Ltd., priority 2020, published 2024)
